Reference: paper PMC3509384 (Anesthesiology, 2012)
Read-outs that look alike come from different tables or passages of the source.

Legend:
[1] = Octanol:water partition coefficient; type: physicochemical; details: water buffered with 10 mM Tris (pH 7.4)
[2] = tested on: rats; test: Loss of righting reflexes; type: in vivo, Sprague-Dawley rats; details: for death of rat after dosing: one rat, 20 mg/kg dose; for death of rat after dosing / Slope of Duration vs. Log Dose ± SD / ED50 ± SD for loss of righting reflexes (LORR): intravenous bolus; for Slope of Duration vs. Log Dose ± SD / ED50 ± SD for loss of righting reflexes (LORR) / R/S ED50 ratio: rats; for Slope of Duration vs. Log Dose ± SD: duration of LORR vs logarithm of dose; for ED50 ± SD for loss of righting reflexes (LORR): method of Waud; for R/S ED50 ratio: ED50 for LORR of (R)-form versus (S)-form of the diastereometric pair
[3] = In vitro metabolic half-life in pooled rat blood; type: in vitro ADME, Sprague-Dawley rats; details: for Blood Half-Life (95% CI): pooled rat blood, 37°C, 200 µM
[4] = ref Pejo et al.[8]; cited from earlier work

Compound	Octanol/Water Partition Coefficient ± SD [1]	death of rat after dosing [2]	Slope of Duration vs. Log Dose ± SD [2]	ED50 ± SD for loss of righting reflexes (LORR) [2]	Blood Half-Life (95% CI) [3]	Octanol/Water Partition Coefficient ± SD [4]	half-life at 200 µM ([3]; Sprague-Dawley, rat, pooled heparinised whole blood)	R/S ED50 ratio [2]
COC(=O)CCOC(=O)c1cncn1[C@@H](c1ccccc1)C(C)C [(R)-isopropyl- methoxycarbonyl metomidate]	3830 ± 310	died	6.6 ± 1.3 min/(log mg/kg)	3.6 ± 0.8 mg/kg	0.15 (0.15–0.16) min			
COC(=O)[C@@H](C)OC(=O)c1cncn1[C@H](C)c1ccccc1 [(R)-methyl- methoxycarbonyl metomidate]	380 ± 15		4.6 ± 0.7 min/(log mg/kg)	9.6 ± 1.9 mg/kg	<0.03 min			
COC(=O)CCOC(=O)c1cncn1[C@H](c1ccccc1)C(C)C [(S)-isopropyl- methoxycarbonyl metomidate]	2860 ± 67		12.1 ± 1.1 min/(log mg/kg)	1.2 ± 0.19 mg/kg	15.5 (11.6–23.1) min			
COC(=O)[C@H](C)OC(=O)c1cncn1[C@H](C)c1ccccc1 [(S)-methyl- methoxycarbonyl metomidate]	330 ± 16		1.9 ± 0.2 min/(log mg/kg)	3.5 ± 0.4 mg/kg	0.14 (0.08–0.62) min			
COC(=O)C(C)(C)OC(=O)c1cncn1[C@H](C)c1ccccc1 [Dimethyl- methoxycarbonyl metomidate]	660 ± 110	died	9.6 ± 0.8 min/(log mg/kg)	0.72 ± 0.16 mg/kg	8.7 (7.4–10.7) min			
CCOC(=O)c1cncn1[C@H](C)c1ccccc1 [Etomidate, (R)-ethyl-1-(1-phenylethyl)-1H-imidazole-5-carboxylate, reference compound]			24.6 ± 4.7 min/(log mg/kg)			800 ± 180		
COC(=O)CCOC(=O)c1cncn1[C@H](C)c1ccccc1 [Methoxycarbonyl etomidate]	190 ± 25		1.0 ± 0.3 min/(log mg/kg)	5.3 ± 1.5 mg/kg	0.41 (0.31–0.60) min			
COC(=O)COC(=O)c1cncn1[C@H](C)c1ccccc1 [Methoxycarbonyl metomidate]	159 ± 15		1.6 ± 0.4 min/(log mg/kg)	11.1 ± 0.8 mg/kg	<0.03 min			
COC(=O)c1cncn1C(C)c1ccccc1 (stereo not drawn) [Metomidate, reference compound]			33.0 ± 3.9 min/(log mg/kg)				2.38 h	
COC(=O)C(OC(=O)c1cncn1C(C)c1ccccc1)C(C)C (stereo not drawn) [isopropyl-methoxycarbonyl metomidate]								3.0
COC(=O)[C@H](C)COC(=O)c1cncn1[C@H](C)c1ccccc1 [α-(R)-methyl- methoxycarbonyl etomidate]	670 ± 120		2.6 ± 0.3 min/(log mg/kg)	5.2 ± 0.5 mg/kg	0.19 (0.17–0.22) min			
COC(=O)[C@@H](C)COC(=O)c1cncn1[C@H](C)c1ccccc1 [α-(S)-methyl- methoxycarbonyl etomidate]	530 ± 170		2.4 ± 0.3 min/(log mg/kg)	3.1 ± 0.4 mg/kg	0.76 (0.58–1.0) min			
COC(=O)C(C)(C)COC(=O)c1cncn1[C@H](C)c1ccccc1 [α-dimethyl- methoxycarbonyl etomidate]	2240 ± 150		9.8 ± 1.5 min/(log mg/kg)	2.4 ± 1 mg/kg	2.6 (1.9–4.2) min			
COC(=O)C[C@@H](C)OC(=O)c1cncn1[C@H](C)c1ccccc1 [β-(R)-methyl- methoxycarbonyl etomidate]	500 ± 24		2.9 ± 0.8 min/(log mg/kg)	3.5 ± 0.6 mg/kg	0.91 (0.76–1.1) min			
COC(=O)C[C@H](C)OC(=O)c1cncn1[C@H](C)c1ccccc1 [β-(S)-methyl- methoxycarbonyl etomidate]	484 ± 12		2.0 ± 0.5 min/(log mg/kg)	2.9 ± 0.3 mg/kg	0.72 (0.56–0.98) min			
COC(=O)CC(C)(C)OC(=O)c1cncn1C(C)c1ccccc1 (stereo not drawn) [β-dimethyl- methoxycarbonyl etomidate]	1580 ± 40		11.9 ± 0.6 min/(log mg/kg)	1.9 ± 0.3 mg/kg	23.4 (19.6–28.9) min			
Cyclopropyl- methoxycarbonyl metomidate	420 ± 11		6.9 ± 0.5 min/(log mg/kg)	0.69 ± 0.04 mg/kg	0.57 (0.49–0.68) min			
methyl-methoxycarbonyl metomidate								2.7
α-methyl-methoxycarbonyl etomidate								1.7
β-methyl-methoxycarbonyl etomidate								1.2
